Several values for one entry are separate records, joined by “and”; a condition that tells them apart may be missing. Identical values can stand only once.
Experiments:
[1] = test system: Influenza A/Vietnam/1203/2004 (H5N1); assay type: cell-based, influenza A virus; settings: 72 h
[2] = test system: influenza A/Brisbane/59/2007 (H1N1) virus; assay type: cell-based

SMILES	SI values (SI = IC50/EC50) of screening hits [1]	Reduction in M1 RNA levels vs no-drug infected MDCK cells [2]
O=S(=O)(O)c1cc(O)c(N=Nc2ccc3cccc(S(=O)(=O)O)c3c2O)c2ccccc12 [SR 22859]	> 13.8	–
O=C(Nc1c(-c2ccccc2)nc2sccn12)c1ccccc1 [compound 786409]	> 94.6	–
CN(C)c1cccc(C(=O)Nc2ccc3nc4n(c(=O)c3c2)CCCCC4)c1 [compound 9551353]	> 3.5	–
NC(=O)c1ncn([C@@H]2O[C@H](CO)[C@@H](O)[C@H]2O)n1 [ribavirin]	–	1.3 fold and 1.9 fold
